Measurements taken from article PMC8121805, “Discovery of first-in-class inhibitors of ASH1L histone methyltransferase with anti-leukemic activity” (Nature Communications, 2021).
Where “and” joins values, the source holds several entries; their conditions need not be identical. Identical values can stand only once. Entries after “also recorded” stand apart in the source; their conditions may differ.

What was measured:
[1] = tested on: panel of diverse set of 30 kinases; assay: Profiling with kinases; conditions: 25 µM, 1 h incubation
Source text: This study was outsourced to the Contract Research Organization.

[2] = tested on: K562 cells; assay: Annexin V apoptosis assay (flow cytometry); type: cell-based, human; conditions: for K562 % Annexin V/PI+ cells: 7 days
[3] = Body weight during treatment in the MV4;11 model
Procedure: Briefly, the 8- to 10-week old female NSG mice (Jackson Laboratory) were intravenously injected with 5 × 10^6 luciferase-expressing MV4;11 cells (received from Dr. Thomas Look, Dana Farber Cancer Institute). […] For imaging, mice were kept anesthetized with isoflurane, and 50 mg/kg luciferin (E1603, Promega) was administered by intraperitoneal injection. Photonic emission was imaged using the in Vivo Imaging System BLI (IVIS, 200) with total imaging time of 10 s for each mouse.
Measurements are reference to the values obtained at the first day of treatment, which were set as

[4] = tested on: MLL4; assay: HMT selectivity panel; conditions: MLL4, 50 µM compound
Source text: (§1) mM DTT and 0.01% Triton X-100 was used in experiments containing core histone.

[5] = tested on: K562 cells; assay: Flow cytometry of CD11B expression (differentiation); type: cell-based, human; conditions: for K562 % CD11B+ cells: 7 days
Procedure: In addition, 1 × 10^5 cells per sample were stained with Zombie Aqua™ dye (1:100 dilution) for 15 min using the Zombie Aqua™ Fixable Viability Kit (Zombie Aqua™ Fixable Viability Kit, Biolegend®) […] and then for 30 min with an anti-CD11B-PE antibody (982606, ICRF44, Biolegend®) or anti-CD11B-Pacific Blue (101224, BD BioLegend) antibody at 1:50 dilution, according to the No-wash Sequential Staining Protocol described by the manufacturer (BioLegend, Zombie Aqua Fixable Viability Kit). Cells were washed twice with 500 µL PBS containing 1% FBS and resuspended in 200 µL PBS with 1% FBS.

[6] = Effect on normal hematopoiesis: complete blood counts and blood parameters
Procedure: At the end point of the experiment blood samples were collected, processed and analyzed for complete blood counts (CBC) and to assess populations of myeloid (CD11b + /Gr-1 + ), B- (B220 + /CD19 + ), and T- (CD3 + ) cells using flow cytometry. […] The analysis of CBC and other blood parameters was performed by the ULAM Animal Diagnostic Laboratory using Element HT5 (HESKA).
(a) Analysis of blood cell counts in
blood cells, RBC – red blood cells, NEU – neutrophiles, LYM – lymphocytes. MONO –
monocytes, EOS – eosinophils, BAS - basophils, PLT - platelets) and other blood parameters (Hgb
– Hemoglobin, HCT- Hematocrit, MCV – Mean corpuscular volume, MCH - Mean corpuscular
hemoglobin, MCHC - Mean corpuscular hemoglobin concentration, RDW – Red cell distribution
(1 picture or pasted object on this page, not shown here)

[7] = biological target: SET7/9 (Homo sapiens, UniProt Q8WTS6); assay: HMT selectivity panel; conditions: SET7/9, 50 µM compound
Source text: Assay conditions for selectivity experiments with a panel of histone
as §1

[8] = tested on: MV4;11 leukemic blasts (human CD45+ cells) in NSG mice; assay: Flow cytometry of hCD45+ cells in spleen and peripheral blood; type: in vivo, mouse
Procedure: Red blood cells were lysed with ACK lysis buffer (10-548E, Lonza). Up to 100,000 cells were washed in PBS (with 1% FBS) and stained with the anti–human CD45-BV421 antibody (563879, HI30, BD Biosciences) at 1:50 dilution for 30 min.

[9] = biological target: NSD3 (Homo sapiens, UniProt Q9BZ95); assay: HMT selectivity panel; conditions: NSD3, 50 µM compound
Source text: as §1

[10] = tested on: MV4;11 cells; assay: RNA-seq global gene expression; type: cell-based, human
Procedure: Total RNA was prepared from cells collected after 7 days of treatment using RNeasy Mini Kit (74106, Qiagen). 2 µg of total RNA for each sample, as quantified using Nanodrop 2000 UV-Vis spectrophotometer, was submitted to the Next-Generation Sequencing Services of the University of Michigan for RNA Sequencing on the Illumina NovaSeq (S4) Sequencer. ERCC RNA Spike-In Mix (4456740, Invitrogen™) was provided to control for variability in RNA expression.
For analysis of RNA-seq data, Fastq generation was performed using Illumina’s bcl2fastq2 software (v2.17). The cutadapt [https://cutadapt.readthedocs.org/en/stable/] and FastQC [http://www.bioinformatics.babraham.ac.uk/projects/fastqc/] tools wrapped in Trim Galore [http://www.bioinformatics.babraham.ac.uk/projects/trim_galore/] were used to trim low quality bases (Q < 20) and adapter for raw sequences. Reads with length <20 bp were removed after trimming. […] Duplicated reads for pair-end data were removed by SAMtools (v1.5)[41]. Aligned reads were assembled using Cufflinks (v2.2.1) and assembled transcriptome catalog was used as an input for Cuffdiff2[42] to determine gene expression levels (FPKM, Fragments Per Kilobase per Million mapped reads) and differential expression between conditions using default options. Genes with p < 0.05 and fold-change >2 up or down were considered as differentially expressing genes to prepare the Volcano plot, which was generated using the “ggplot2” R package. Gene set analysis was performed and enrichment plots were generated using the “fgsea” package, with the test statistic generated by Cuffdiff2 used to rank genes for gene set enrichment analysis. Fgsea was run using the C2, C5, and C6 curated datasets from MSigDB[44]. Heatmaps for the top 20 ranked genes in the Leading Edge from a given enrichment analysis were generated with the “gplots” package [https://cran.r-project.org/web/packages/gplots/index.html].

[11] = biological target: DOT1L (Homo sapiens, UniProt Q8TEK3); assay: HMT selectivity panel; conditions: 50 µM compound
Procedure: as §1
experiments containing nucleosome.
G9a 5 core histone 0.05 mg/mL 1
GLP 5 core histone 0.05 mg/mL 1

[12] = biological target: G9a (Homo sapiens, UniProt Q96KQ7); assay: HMT selectivity panel; conditions: 50 µM compound
Procedure: as §1
experiments containing nucleosome.
G9a 5 core histone 0.05 mg/mL 1
GLP 5 core histone 0.05 mg/mL 1

[13] = Fig S12a, individual mice, AS-99 group
[14] = individual mice, after last day of treatment, 30 mg/kg q.d. i.p., 30 mg/kg
[15] = RNA-seq, MV4;11, 3 µM, seven days

Chain of DOT1L (Q8TEK3 whole entry, species assumed): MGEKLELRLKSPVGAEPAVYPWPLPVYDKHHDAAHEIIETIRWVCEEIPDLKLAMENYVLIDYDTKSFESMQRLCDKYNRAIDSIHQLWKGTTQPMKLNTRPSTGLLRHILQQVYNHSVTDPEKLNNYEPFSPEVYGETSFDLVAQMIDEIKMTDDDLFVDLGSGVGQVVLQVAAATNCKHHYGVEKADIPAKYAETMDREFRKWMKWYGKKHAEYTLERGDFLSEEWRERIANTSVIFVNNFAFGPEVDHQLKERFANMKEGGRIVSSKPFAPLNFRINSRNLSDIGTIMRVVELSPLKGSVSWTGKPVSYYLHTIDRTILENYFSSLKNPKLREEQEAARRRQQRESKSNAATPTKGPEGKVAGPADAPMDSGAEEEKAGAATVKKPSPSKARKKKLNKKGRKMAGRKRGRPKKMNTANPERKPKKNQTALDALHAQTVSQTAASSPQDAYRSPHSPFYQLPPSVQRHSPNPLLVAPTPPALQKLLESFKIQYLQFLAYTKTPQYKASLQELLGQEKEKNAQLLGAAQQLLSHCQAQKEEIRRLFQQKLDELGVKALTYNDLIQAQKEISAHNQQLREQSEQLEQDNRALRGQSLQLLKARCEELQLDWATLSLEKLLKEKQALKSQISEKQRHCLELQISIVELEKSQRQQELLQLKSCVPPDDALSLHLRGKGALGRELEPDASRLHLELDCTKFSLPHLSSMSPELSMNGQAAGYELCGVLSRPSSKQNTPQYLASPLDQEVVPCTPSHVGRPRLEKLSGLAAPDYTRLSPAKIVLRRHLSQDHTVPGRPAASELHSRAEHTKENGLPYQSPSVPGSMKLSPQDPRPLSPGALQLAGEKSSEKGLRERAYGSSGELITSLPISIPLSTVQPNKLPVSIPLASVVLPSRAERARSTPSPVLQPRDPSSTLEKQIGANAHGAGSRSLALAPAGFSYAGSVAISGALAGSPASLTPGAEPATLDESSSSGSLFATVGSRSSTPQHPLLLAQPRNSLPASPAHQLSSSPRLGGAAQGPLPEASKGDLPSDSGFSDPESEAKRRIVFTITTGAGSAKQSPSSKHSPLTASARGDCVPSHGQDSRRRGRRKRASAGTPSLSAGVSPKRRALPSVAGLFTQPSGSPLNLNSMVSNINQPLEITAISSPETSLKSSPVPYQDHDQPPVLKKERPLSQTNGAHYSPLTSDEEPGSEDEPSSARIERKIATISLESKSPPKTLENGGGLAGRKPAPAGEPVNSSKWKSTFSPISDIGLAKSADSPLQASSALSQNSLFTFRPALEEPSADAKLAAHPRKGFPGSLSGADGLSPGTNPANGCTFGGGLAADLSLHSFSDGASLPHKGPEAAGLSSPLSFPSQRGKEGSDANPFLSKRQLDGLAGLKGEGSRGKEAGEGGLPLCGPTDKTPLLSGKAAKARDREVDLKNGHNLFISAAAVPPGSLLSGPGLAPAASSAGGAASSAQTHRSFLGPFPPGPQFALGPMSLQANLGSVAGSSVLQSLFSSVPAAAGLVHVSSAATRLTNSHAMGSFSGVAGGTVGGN
Chain of NSD3 (Q9BZ95 whole entry, species assumed): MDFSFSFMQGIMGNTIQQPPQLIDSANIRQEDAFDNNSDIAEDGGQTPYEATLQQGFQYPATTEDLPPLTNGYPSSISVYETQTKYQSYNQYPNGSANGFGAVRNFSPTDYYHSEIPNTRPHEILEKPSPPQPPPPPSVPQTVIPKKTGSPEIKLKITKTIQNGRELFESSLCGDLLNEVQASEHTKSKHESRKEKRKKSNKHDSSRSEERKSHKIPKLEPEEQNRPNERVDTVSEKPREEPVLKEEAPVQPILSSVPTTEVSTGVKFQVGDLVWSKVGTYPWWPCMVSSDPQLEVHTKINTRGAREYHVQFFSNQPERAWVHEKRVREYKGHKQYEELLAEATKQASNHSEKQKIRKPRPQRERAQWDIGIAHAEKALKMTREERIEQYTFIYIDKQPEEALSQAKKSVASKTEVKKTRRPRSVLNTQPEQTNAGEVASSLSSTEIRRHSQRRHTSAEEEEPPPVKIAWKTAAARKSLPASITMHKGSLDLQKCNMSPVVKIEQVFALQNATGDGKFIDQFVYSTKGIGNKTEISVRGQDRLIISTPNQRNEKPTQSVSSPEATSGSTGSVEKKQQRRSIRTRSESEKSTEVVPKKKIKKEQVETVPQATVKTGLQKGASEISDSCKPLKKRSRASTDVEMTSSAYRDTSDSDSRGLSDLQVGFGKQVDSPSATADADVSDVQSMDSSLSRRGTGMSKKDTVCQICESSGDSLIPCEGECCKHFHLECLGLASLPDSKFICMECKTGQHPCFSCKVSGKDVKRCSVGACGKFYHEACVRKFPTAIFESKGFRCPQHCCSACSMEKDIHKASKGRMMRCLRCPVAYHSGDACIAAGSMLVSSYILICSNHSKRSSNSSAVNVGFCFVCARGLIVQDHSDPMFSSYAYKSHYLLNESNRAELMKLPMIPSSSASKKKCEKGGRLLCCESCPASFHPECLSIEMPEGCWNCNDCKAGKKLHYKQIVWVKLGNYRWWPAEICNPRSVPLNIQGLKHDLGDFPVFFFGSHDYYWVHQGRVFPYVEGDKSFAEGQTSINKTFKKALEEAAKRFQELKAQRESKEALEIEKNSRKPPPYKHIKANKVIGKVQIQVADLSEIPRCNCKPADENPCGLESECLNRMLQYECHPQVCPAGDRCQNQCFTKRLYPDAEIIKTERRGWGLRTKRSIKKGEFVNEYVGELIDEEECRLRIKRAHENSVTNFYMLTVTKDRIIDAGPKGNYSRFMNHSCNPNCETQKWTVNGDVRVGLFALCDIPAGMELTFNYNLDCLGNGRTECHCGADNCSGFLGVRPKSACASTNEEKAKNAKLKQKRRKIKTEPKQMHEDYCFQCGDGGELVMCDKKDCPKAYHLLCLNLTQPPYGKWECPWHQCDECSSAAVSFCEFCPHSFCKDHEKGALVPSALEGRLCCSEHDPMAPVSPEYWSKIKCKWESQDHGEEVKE
Chain of SET7/9 (Q8WTS6 whole entry, species assumed): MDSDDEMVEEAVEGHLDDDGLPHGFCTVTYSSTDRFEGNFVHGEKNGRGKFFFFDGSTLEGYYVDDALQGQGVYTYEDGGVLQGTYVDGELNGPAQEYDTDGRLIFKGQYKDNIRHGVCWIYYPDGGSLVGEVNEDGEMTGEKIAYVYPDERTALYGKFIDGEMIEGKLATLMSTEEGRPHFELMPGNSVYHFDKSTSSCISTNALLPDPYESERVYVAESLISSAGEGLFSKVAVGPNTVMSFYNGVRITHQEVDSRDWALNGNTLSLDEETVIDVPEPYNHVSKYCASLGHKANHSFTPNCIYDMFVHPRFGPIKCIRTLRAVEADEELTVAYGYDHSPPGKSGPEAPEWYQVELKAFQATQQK
Chain of G9a (Q96KQ7 whole entry, species assumed): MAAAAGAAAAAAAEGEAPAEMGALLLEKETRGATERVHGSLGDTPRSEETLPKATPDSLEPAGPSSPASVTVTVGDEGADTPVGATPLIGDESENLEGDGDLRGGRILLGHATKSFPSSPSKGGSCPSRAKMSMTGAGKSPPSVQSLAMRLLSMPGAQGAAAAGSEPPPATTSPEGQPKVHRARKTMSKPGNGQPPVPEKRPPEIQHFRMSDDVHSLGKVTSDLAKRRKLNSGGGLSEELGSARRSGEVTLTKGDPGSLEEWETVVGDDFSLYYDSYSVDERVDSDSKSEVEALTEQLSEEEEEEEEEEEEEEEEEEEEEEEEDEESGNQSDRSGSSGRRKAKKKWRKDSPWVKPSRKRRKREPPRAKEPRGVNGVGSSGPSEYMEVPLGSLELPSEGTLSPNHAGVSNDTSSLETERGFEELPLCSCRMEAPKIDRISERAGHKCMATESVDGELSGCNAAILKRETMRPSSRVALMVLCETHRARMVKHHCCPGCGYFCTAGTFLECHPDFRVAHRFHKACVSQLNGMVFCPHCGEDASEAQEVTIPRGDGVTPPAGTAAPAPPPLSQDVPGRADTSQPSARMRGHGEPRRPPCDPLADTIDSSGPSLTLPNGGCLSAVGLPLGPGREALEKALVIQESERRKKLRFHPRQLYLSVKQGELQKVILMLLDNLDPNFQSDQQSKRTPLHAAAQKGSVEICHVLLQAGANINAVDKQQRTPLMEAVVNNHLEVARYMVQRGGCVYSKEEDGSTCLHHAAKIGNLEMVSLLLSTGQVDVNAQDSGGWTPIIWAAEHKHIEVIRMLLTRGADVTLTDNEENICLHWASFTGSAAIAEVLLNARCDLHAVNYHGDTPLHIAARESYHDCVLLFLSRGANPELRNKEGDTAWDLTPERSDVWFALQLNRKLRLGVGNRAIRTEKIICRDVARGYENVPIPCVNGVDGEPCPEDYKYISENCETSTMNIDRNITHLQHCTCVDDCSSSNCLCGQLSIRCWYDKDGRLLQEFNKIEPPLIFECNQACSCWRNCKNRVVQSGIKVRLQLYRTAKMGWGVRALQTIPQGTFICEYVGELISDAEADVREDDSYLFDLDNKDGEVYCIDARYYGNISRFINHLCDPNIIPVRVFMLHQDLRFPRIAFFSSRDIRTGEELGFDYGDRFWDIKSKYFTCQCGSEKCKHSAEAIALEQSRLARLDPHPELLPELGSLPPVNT

CN1CC(C(=O)NCc2ccc3c(-c4cccc(C(N)=S)c4)cn(C4CCN(S(=O)(=O)C(F)(F)F)CC4)c3c2)C1 [AS-99]
inhibition in a panel of representative kinases [1]: does not inhibit strongly; also recorded: did not show substantial inhibition
apoptosis in K562 cells [2]: not in the K562 cells
K562 % Annexin V/PI+ cells ([2]; 2 uM): 10.85% and 7.41% and 3.78%
K562 % Annexin V/PI+ cells ([2]; 4 uM): 7.07% and 5.34% and 5.33%
K562 % Annexin V/PI+ cells ([2]; 6 uM): 4.92% and 4.78% and 6.63%
K562 % Annexin V/PI+ cells ([2]; 8 uM): 5.64% and 10.26% and 7.32%
toxicity during the treatment period ([3]; 30 mg/kg, i.p., q.d., 14 days): No substantial toxicity
body weight reduction ([3]; after 7 days of treatment, 30 mg/kg, i.p., q.d.): ~ 10%
normalized body weight change ([3]; days of treatment 1): 100
normalized body weight change ([3]; days of treatment 2): 95 and 98 and 97 and 96
normalized body weight change ([3]; days of treatment 3): 94 and 98 and 96 and 99 and 95 and 102
normalized body weight change ([3]; days of treatment 4): 95 and 96 and 97 and 100
normalized body weight change ([3]; days of treatment 5): 95 and 89 and 93 and 87 and 100
normalized body weight change ([3]; days of treatment 6): 90 and 100 and 94 and 87 and 93
normalized body weight change ([3]; days of treatment 7): 85 and 89 and 87 and 94
normalized body weight change ([3]; days of treatment 9): 91 and 93 and 95 and 87 and 90
normalized body weight change ([3]; days of treatment 10): 91 and 98 and 96 and 89 and 95 and 87
normalized body weight change ([3]; days of treatment 11): 91 and 96 and 94 and 97 and 100 and 99 and 89
normalized body weight change ([3]; days of treatment 12): 95 and 103 and 87 and 88
normalized body weight change ([3]; days of treatment 13): 89 and 95 and 94 and 96 and 105 and 90
% activity [4]: 79.3828% and 71.6922%
K562 % CD11B+ cells ([5]; 2 uM): 0.43% and 0.58% and 0.36%
K562 % CD11B+ cells ([5]; 4 uM): 0.34% and 0.52% and 0.4%
K562 % CD11B+ cells ([5]; 6 uM): 0.56% and 0.39% and 0.38%
K562 % CD11B+ cells ([5]; 8 uM): 0.73% and 0.97% and 0.76%
differentiation effects in K562 ([5]; control leukemia cell line): not observed
BAS [6, 13]: 0.02 x 103/uL (2×) and 0.03 x 103/uL (4×) and 0.01 x 103/uL (2×) and 0 x 103/uL
EOS [6, 13]: 270 µL⁻¹ and 470 µL⁻¹ and 320 µL⁻¹ and 390 µL⁻¹ and 650 µL⁻¹ and 300 µL⁻¹ and 100 µL⁻¹ and 450 µL⁻¹ and 360 µL⁻¹
HCT [6, 13]: 41.9% and 39.7% and 28.7% and 46% and 40.3% and 29.4% and 10.7% and 42.8% and 41.4%
HGB [6, 13]: 13.7 g/dL and 13.1 g/dL and 9.8 g/dL and 15.6 g/dL and 13.9 g/dL and 10.1 g/dL and 3.6 g/dL and 14.6 g/dL and 14 g/dL
LYM [6, 13]: 4070 µL⁻¹ and 5890 µL⁻¹ and 4140 µL⁻¹ and 5390 µL⁻¹ and 6000 µL⁻¹ and 3920 µL⁻¹ and 1230 µL⁻¹ and 6280 µL⁻¹ and 5970 µL⁻¹
MCH [6, 13]: 14.8 Pg and 15 Pg (2×) and 15.6 Pg (3×) and 14.9 Pg and 15.4 Pg and 16.2 Pg
MCHC [6, 13]: 32.8 g/dL and 33.1 g/dL and 34.1 g/dL (2×) and 33.9 g/dL and 34.4 g/dL (2×) and 34 g/dL and 33.8 g/dL
MCV [6, 13]: 45.2 fL (3×) and 45.4 fL and 45.8 fL and 44 fL and 43.6 fL and 45.7 fL and 48 fL
MONO [6, 13]: 0.17 x 103/uL and 0.23 x 103/uL (2×) and 0.12 x 103/uL and 0.28 x 103/uL (2×) and 0.11 x 103/uL and 0.05 x 103/uL and 0.2 x 103/uL
MPV [6, 13]: 5 fL (2×) and 5.5 fL and 5.9 fL and 5.1 fL and 5.4 fL (2×) and 5.6 fL and 4.8 fL
NEU [6, 13]: 970 µL⁻¹ and 1680 µL⁻¹ and 1330 µL⁻¹ and 2070 µL⁻¹ and 1910 µL⁻¹ and 1210 µL⁻¹ and 630 µL⁻¹ and 1870 µL⁻¹ and 1770 µL⁻¹
PLT [6, 13]: 1548 K/uL and 1435 K/uL and 1241 K/uL and 1545 K/uL and 1340 K/uL and 938 K/uL and 317 K/uL and 1303 K/uL and 1383 K/uL
RBC [6, 13]: 9.27 M/uL and 8.74 M/uL and 6.26 M/uL and 10.46 M/uL and 9.24 M/uL and 6.5 M/uL and 2.36 M/uL and 9.37 M/uL and 8.63 M/uL
RDW [6, 13]: 14.4% and 15.6% and 15.4% and 13.5% and 14.9% and 13.9% and 14.7% and 14.8% and 18.3%
WBC [6, 13]: 5.5 k/uL and 8.3 k/uL and 5.92 k/uL and 8.1 k/uL and 8.87 k/uL and 5.55 k/uL and 2.01 k/uL and 8.91 k/uL and 8.33 k/uL
blood counts and other blood parameters versus vehicle ([6]; normal mice, 30 mg/kg, i.p., q.d., 14 days): no significant difference
activity at 50 µM [7]: 81.7%
% activity ([7]; 50 µM): 85.3173%
hCD45+ % in PB [8, 14]: 6.6% and 0.44% and 0.41% and 0.23% and 0.21% and 0.19%
hCD45+ % in spleen [8, 14]: 2.39% and 0.79% and 1.14% and 1.53% and 0.61% and 1.12% and 0.041%
level of leukemic blasts (human CD45+ cells) in peripheral blood and spleen ([8]; last day of treatment): significantly lower level
activity at 50 µM [9]: 145%
% activity ([9]; 50 µM): 128.837%
GSEA: transcriptional programs driven by MLL fusion proteins and HOXA9 ([10]; MV4;11): downregulation of transcriptional programs driven by MLL fusion proteins and HOXA9
number of downregulated genes [10, 15]: 323
number of up-regulated genes [10, 15]: 75
activity at 50 µM [11]: 107%
% activity ([11]; 50 µM): 93.8212%
activity at 50 µM [12]: 90.9%
% activity ([12]; 50 µM): 91.9579%
